≈ marks a conversion by molar mass, not a printed value.

This note sets out measurements from patent US20050222423A1, “Carboxylic acid derivative” (TAISHO PHAR[…]., LTD., priority 2001, published 2005).

For series [1] the following is noted: pH 6.9; phosphate buffer 20 mM; 25° C.
Experimental: 1 mg of a test compound was weighed out in a threaded test tube, 1 ml of a phosphate buffer (pH: 6.8; 20 mM; ion intensity=0.15) was added thereto and, after shaking for 2 hours at room temperature under light-shielded condition, was incubated for 22 hours at 25° C. A supernatant obtained by centrifuging the test tube for 10 minutes at 3000 rpm at 25° C. was further centrifuged for 10 minutes at 11000 rpm at 25° C. The thus-obtained supernatant was diluted with a water/acetonitrile (1:1) mixture with a dilution ratio of 2 times to 21 times to prepare a sample solution (A). Also, 0.5 mg of the test compound was dissolved in 5 ml of acetonitrile, and diluted two times with acetonitrile to prepare a standard solution (B). 10 μl of the sample solution (A) and 10 μl of the standard solution (B) were subjected to measurement according to HPLC method to determine a peak area of the test compound in each of the solutions. The solubility (mg/ml) of the test compound was calculated according to the following equation using the measured values.
Column temperature: 40° C.
A further series deals with T1, Flt-1 (Homo sapiens, UniProt P17948).
T1 construct: expressed in transfected cells; host or cells: NIH3T3 cells (G418-selected)
The series is described as follows: VEGF Receptor-Binding Test ([125I]-VEGF binding to NIH3T3 cells in which Flt-1 was forced to be expressed). To be noted: test compound concentration 1 μg/ml; [125I]-VEGF 25 pM; 90 minutes at 4° C. On the procedure: According to the method described in a document (Cell Growth & Differentiation, vol. 7, pp. 213-221, 1996), the following tests were carried out.
NIH3T3 cells, in which Flt-1 was forced to be expressed, were seeded on a 24-well collagen-coated plate (7×10^4 cells/well), and were cultured in Dulbecco's modified Eagle's medium (DMEM) containing 10% bovine serum and 200 μg/ml of Geneticin G418 for 24 hours at 37° C. under an atmosphere of 5% carbon dioxide gas. The cells were preincubated in Buffer A [containing 10 mM HEPES (N-2-hydroxyethylpiperazine-N′-2-ethanesulfonic acid) and 0.1% BSA (bovine serum albumin) in DMEM] for 30 minutes at 4° C. Subsequently, the medium was replaced with Buffer B (containing 10 mM HEPES and 0.5% BSA in DMEM). […] The radioactivity of the lysed cells in each well was measured by means of a gamma counter, and a total binding quantity of [^125I]-VEGF was calculated. Non-specific binding quantity of [^125I]-VEGF was measured by competition assay in the presence of 10 nM non-labeled VEGF. The specific binding quantity of [^125I]-VEGF was calculated from the difference between the total binding quantity of [^125I]-VEGF and non-specific binding quantity of ^125I]-VEGF. The binding inhibition index of the test compounds was calculated by the following equation.

T1 sequence (P17948 27-1338): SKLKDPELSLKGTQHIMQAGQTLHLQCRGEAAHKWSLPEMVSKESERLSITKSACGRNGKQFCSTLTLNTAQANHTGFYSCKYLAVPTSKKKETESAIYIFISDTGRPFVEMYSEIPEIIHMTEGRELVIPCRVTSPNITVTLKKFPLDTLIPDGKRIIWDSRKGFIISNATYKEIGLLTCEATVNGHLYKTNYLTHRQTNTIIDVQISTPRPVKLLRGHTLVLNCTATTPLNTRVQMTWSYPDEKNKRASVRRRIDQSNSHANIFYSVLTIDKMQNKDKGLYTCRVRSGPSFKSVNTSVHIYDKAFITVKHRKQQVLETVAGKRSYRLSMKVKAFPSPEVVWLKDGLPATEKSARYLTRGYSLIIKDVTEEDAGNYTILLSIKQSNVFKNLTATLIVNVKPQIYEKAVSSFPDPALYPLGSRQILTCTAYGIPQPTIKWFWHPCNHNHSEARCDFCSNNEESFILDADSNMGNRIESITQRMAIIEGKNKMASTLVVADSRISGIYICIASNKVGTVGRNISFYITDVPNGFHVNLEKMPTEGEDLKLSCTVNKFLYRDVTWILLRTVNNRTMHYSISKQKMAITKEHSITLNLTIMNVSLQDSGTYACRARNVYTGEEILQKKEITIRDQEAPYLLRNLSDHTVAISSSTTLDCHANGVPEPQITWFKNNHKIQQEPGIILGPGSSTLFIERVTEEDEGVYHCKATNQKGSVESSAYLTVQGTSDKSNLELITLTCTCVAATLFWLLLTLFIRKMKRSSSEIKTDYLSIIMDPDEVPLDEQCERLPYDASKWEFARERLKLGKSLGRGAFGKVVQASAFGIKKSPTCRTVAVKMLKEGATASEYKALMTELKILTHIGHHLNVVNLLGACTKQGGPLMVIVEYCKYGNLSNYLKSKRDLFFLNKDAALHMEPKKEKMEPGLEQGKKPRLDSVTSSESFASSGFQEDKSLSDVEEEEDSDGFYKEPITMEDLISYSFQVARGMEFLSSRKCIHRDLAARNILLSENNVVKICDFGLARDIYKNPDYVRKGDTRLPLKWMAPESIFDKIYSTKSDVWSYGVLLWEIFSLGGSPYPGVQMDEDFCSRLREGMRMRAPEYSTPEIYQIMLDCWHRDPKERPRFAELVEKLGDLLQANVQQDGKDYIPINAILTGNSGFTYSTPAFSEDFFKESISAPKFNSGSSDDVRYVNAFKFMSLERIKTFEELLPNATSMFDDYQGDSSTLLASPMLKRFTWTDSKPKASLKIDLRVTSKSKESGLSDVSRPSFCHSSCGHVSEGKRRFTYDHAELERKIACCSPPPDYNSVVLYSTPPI

As for `CCCCCCCCCCCCCCCCCCOc1ccc(CCC(=O)Nc2ccc(Oc3ccc(C(=O)O)cc3)c(C(=O)O)c2)cc1` [a, 5-Amino-2-(4-carboxyphenoxy)-N-[3-{4-(1-octadecyloxy)-phenyl}propionyl]benzoic acid], in series [1], the Solubility was determined as 0.029 µg/mL (≈ 0.043 µM). Further, the “Inhibition Index” value on Flt-1 is listed as 65%.
